According to patent US20210353648A1, “GRAPIPRANT UNIT DOSAGE FORMS” (Arrys Therapeutics, Inc., priority 2018, published 2021):

Assays:
[1] = Phase 1 crossover food effect study of 375 mg grapiprant tablets: safety; assay type: in vivo, human; conditions: for subjects with treatment-emergent adverse events / treatment-emergent adverse events: 12 subjects
Procedure: This study was a randomized, open-label, single dose, 2-period crossover design. Each subject participated in 2 study periods. In each study period, subjects received a dose of 375 mg administered as 3×125 mg tablets of grapiprant under fasted or fed conditions in a crossover manner according to a randomized dosing sequence. The fed condition consisted of a standardized high-fat meal. Following an initial screening period of no longer than 28 days, 12 eligible subjects were to be randomized to the 2 treatment sequences and 2 treatment period sessions as shown in Table 6-1.
All subjects were evaluated for safety, which was assessed by adverse events either spontaneously reported or elicited by non-leading questions from study staff, clinical observations, safety laboratory tests, vital signs, 12-lead ECGs, concomitant medication assessment, physical examination, and fecal occult blood tests.

[2] = Phase 1 multiple ascending dose study of grapiprant tablets: serum pharmacokinetics; assay type: in vivo, human; conditions: for Rac (Day 14/Day 1) / half-life / Cmax / AUC(0-t): mean; for increase of mean systemic exposure (AUC and Cmax) with dose: 14 days; for half-life / Cmax / AUC(0-t) / Tmax: human, oral, serum; for Tmax: median
From the text: Serum pharmacokinetic parameters can be computed using WinNonlin Version 3.2 (Pharsight®, Mountain View, Calif.) using standard non-compartmental methods. As used herein, the term “Cmax” refers to the maximum observed serum concentration of grapiprant estimated directly from concentration versus time data. As used herein, the term “Tmax” refers to the time of the first occurrence of Cmax. As used herein, the term “AUC(0-tlast)” refers to the area under the serum concentration vs. time curve from time 0 to Tlast (the time of the last quantifiable concentration estimated using the linear/log trapezoidal approximation). When data permitted, the terminal elimination rate constant (kel) was estimated using linear least-square regression analysis of the serum concentration-time data obtained during the terminal log-linear phase. As used herein, the term “AUC(0-inf)” refers to AUC(0-tlast) extrapolated to infinity, which is calculated as the sum of AUC(0-tlast) and Cest/kel, wherein Cest is the predicted plasma concentration obtained from the log linear regression analysis at the last quantifiable time point. As used herein, the term “t½” refers to terminal phase half-life calculated as ln(2)/kel. As used herein, the term “AUC(last-inf)” refers to the area under the serum concentration versus time curve from Tlast to infinity, which is estimated as Cpest/kel, wherein Cpest represented the estimated concentration at time Tlast based on the aforementioned regression analysis. As used herein, the term “AUCτ” refers to the area under the serum concentration versus time curve over the dosing interval. As used herein, the term “Rac” refers to the accumulation ratio of grapiprant in the serum, which is calculated as a measure of drug accumulation at steady state compared to Day 1. Rac for the 14 day oral administration described herein is calculated using the equation: Rac=(Day 14 AUCτ/Day 1 AUCτ). Rac for the 17 day oral administration described herein is calculated using the equation: Rac=(Day 17 AUCτ/Day 1 AUCτ). Day 17 is used as steady state in the elderly group of subjects, which is Day 14 of the multiple dosing period for these subjects.
As used herein, the terms “cohort 1”, “cohort 2”, and “cohort 3” refer to studies where grapiprant tablets are administered at dosage levels of 50 mg, 150 mg, and 300 mg, respectively, in healthy adult subjects with a 14 day oral administration regimen as follows: one dose in the morning in a fasting state on day 1; twice daily (BID, approximately every 12 hours) on days 2 through 13: one dose in a fasting state in the morning, and one dose in the evening on an empty stomach; and one dose in the morning in a fasting state on day 14.
As used herein, the term “cohort 5” and/or “cohort 6” refers to a study where grapiprant tablets are administered at a dosage level of 250 mg in elderly subjects with minor renal impairment with a 17 day oral administration regimen as follows: one dose in the morning in a fasting state on day 1; twice daily (BID, approximately every 12 hours) on days 4 through 16: one dose in a fasting state in the morning, and one dose in the evening on an empty stomach; and one dose in the morning in a fasting state on day 17.
Dosing and Duration: In Cohorts 1-3, study medication was administered once daily in the morning on Days 1 and 14, and twice daily (BID, approximately every 12 hours) on Days 2 through 13. In Cohorts 5 and 6, study medication was administered once daily in the morning on Day 1, BID on Days […] through 16, and once in the morning on Day 17. In all cohorts dosing was to be in the fasting state for the morning dose and on an “empty stomach” for the evening dose.
Pharmacokinetic Evaluations: Serial blood samples for serum PK evaluations of grapiprant began prior to dosing on Day 1 and continued until 48 hours following Day 14 dosing (Cohorts 1-3) or until 24 hours following Day 17 dosing (Cohorts 5 and 6). […]

[3] = 50 mg, 50 mg BID tablets, Day 1, healthy adults
[4] = 50 mg, 50 mg BID tablets, Day 14, healthy adults
[5] = 150 mg, 150 mg BID tablets, Day 1, healthy adults
[6] = 150 mg, 150 mg BID tablets, Day 14, healthy adults
[7] = 250 mg, 250 mg BID tablets, Day 1, elderly with mild renal impairment
[8] = 250 mg, 250 mg BID tablets, Day 17, elderly with mild renal impairment
[9] = 300 mg, 300 mg BID tablets, Day 1, healthy adults
[10] = 300 mg, 300 mg BID tablets, Day 14, healthy adults

SMILES: CCc1nc2c(C)nc(C)cc2n1-c1ccc(CCNC(=O)NS(=O)(=O)c2ccc(C)cc2)cc1 [Grapiprant, N-((4-(2-ethyl-4,6-dimethyl-1H-imidazo[4,5-c]pyridin-1-yl)phenethyl)carbamoyl)-4-methylbenzenesulfonamide]
- subjects with treatment-emergent adverse events ([1]; 375 mg tablet-fasted treatment): 5 subjects
- treatment-emergent adverse events ([1]; 375 mg tablet-fasted treatment): 7 events
- subjects with treatment-emergent adverse events ([1]; 375 mg tablet-fed treatment): 4 subjects
- treatment-emergent adverse events ([1]; 375 mg tablet-fed treatment): 5 events
- intensity of adverse events ([1]; 375 mg, after both treatments): mild in intensity
- QTc ([1]; 375 mg, fasted and fed): no subjects had maximum QTc increases from baseline of ≥30 msec
- clinical laboratory tests or vital sign measurements ([1]; 375 mg, fasted and fed): No subjects had clinically significant changes from baseline
- deaths, serious adverse events, withdrawals ([1]; 375 mg, fasted and fed): no deaths, serious adverse events, or withdrawals due to adverse events
- tolerability ([1]; 375-mg dose of tablets, fasted and fed conditions, healthy adults): well-tolerated
- Rac (Day 14/Day 1) ([2]; 50 mg BID tablets, Day 14 AUCT/Day 1 AUCT, healthy adults): 1.13
- Rac (Day 14/Day 1) ([2]; 150 mg BID tablets, Day 14 AUCT/Day 1 AUCT, healthy adults): 1.20
- Rac (Day 14/Day 1) ([2]; 250 mg BID tablets, Day 17 AUCT/Day 1 AUCT, elderly with mild renal impairment): 1.54
- mean exposure compared with the 300 mg BID healthy adult group ([2]; 250 mg BID, elderly subjects with mild renal impairment): slightly greater
- Rac (Day 14/Day 1) ([2]; 300 mg BID tablets, Day 14 AUCT/Day 1 AUCT, healthy adults): 1.33
- increase of mean systemic exposure (AUC and Cmax) with dose ([2]; between 50 and 150 mg BID, tablets, healthy adults): approximately dose proportional
- increase of mean exposures ([2]; dose increased 2-fold from 150 mg BID to 300 mg BID, healthy adults): approximately 3 fold
- increase of mean systemic exposure (AUC and Cmax) with dose ([2]; dose increased from 150 mg BID to 300 mg BID, healthy adults): greater than dose proportional increase
- half-life ([2]; 50 mg BID tablets, Day 14, healthy adults): 6.47 h
- half-life ([2]; 150 mg BID tablets, Day 14, healthy adults): 9.71 h
- half-life ([2]; 250 mg BID tablets, Day 1, elderly with mild renal impairment): 8.63 h
- half-life ([2]; 300 mg BID tablets, Day 14, healthy adults): 8.76 h
- Cmax ([2]; 50 mg, 50 mg BID tablets, Day 1 (n = 9), healthy adults): 578 ng/mL
- AUC(0-t) [2, 3]: 3150 ng·h/mL
- Tmax [2, 3]: 1.5 h
- Cmax ([2]; 50 mg, 50 mg BID tablets, Day 14 (n = 8), healthy adults): 611 ng/mL
- AUC(0-t) [2, 4]: 3370 ng·h/mL
- Tmax [2, 4]: 1.25 h
- Cmax ([2]; 150 mg, 150 mg BID tablets, Day 1 (n = 9), healthy adults): 2150 ng/mL
- AUC(0-t) [2, 5]: 8970 ng·h/mL
- Tmax [2, 5]: 1.5 h
- Cmax ([2]; 150 mg, 150 mg BID tablets, Day 14 (n = 9), healthy adults): 2670 ng/mL
- AUC(0-t) [2, 6]: 10300 ng·h/mL
- Tmax [2, 6]: 1.5 h
- Cmax ([2]; 250 mg, 250 mg BID tablets, Day 1 (n = 15), elderly with mild renal impairment): 10300 ng/mL
- AUC(0-t) [2, 7]: 30100 ng·h/mL
- Tmax [2, 7]: 1 h
- Cmax ([2]; 250 mg, 250 mg BID tablets, Day 17 (n = 14), elderly with mild renal impairment): 12300 ng/mL
- AUC(0-t) [2, 8]: 40200 ng·h/mL
- Tmax [2, 8]: 1 h
- Cmax ([2]; 300 mg, 300 mg BID tablets, Day 1 (n = 9), healthy adults): 8240 ng/mL
- AUC(0-t) [2, 9]: 24900 ng·h/mL
- Tmax [2, 9]: 1.5 h
- Cmax ([2]; 300 mg, 300 mg BID tablets, Day 14 (n = 9), healthy adults): 10400 ng/mL
- AUC(0-t) [2, 10]: 32300 ng·h/mL
- Tmax [2, 10]: 1 h
